Measured values taken from patent US8110398B2, “Stable cell lines and methods for evaluating gastrointestinal absorption of chemicals” (Absorption Systems Group, LLC, priority 2006, dated 2012).

Tests used:
[1] = in vitro; settings: human, pH 7.4
[2] = in vitro; settings: human, Caco-2, pH 7.4
[3] = target: T1, P-gp (Homo sapiens, UniProt P08183); assay: in vitro
Method: (§1) Bidirectional Transcellular Transport assay.
(§2) Each determination was performed in duplicate.
The assay was carried out after each clone had been passaged 9 times.

[4] = test system: BCRP mRNA; assay: RT-PCR of BCRP mRNA expression in transduced C2BBe1 cells; format: cell-based, human; settings: between passages 5 and 20
Method: RT-PCR. Total RNA was extracted from cells according to the following protocol. Cells were harvested from culture by centrifugation, resuspended in 1 ml of TRIzol® reagent (Invitrogen, Carlsbad, Calif.), and incubated at room temperature for 5 minutes with gentle shaking. The suspension was transferred to a 1.5 ml centrifuge tube, to which 200 μl of Chloroform was added, followed by an additional 5 minute incubation period with shaking. After incubation, the suspension was centrifuged at 12,000×g for 12 minutes at 4° C. The supernatant was transferred to a fresh, sterile 1.5 ml centrifuge tube, and supplemented with 0.5 ml of 2-propanaol per 1 ml of TRIzol reagent, and incubated for 10 minutes at room temperature. The mixture was then centrifuged at 12,000×g for an additional 12 minutes at 4° C. After centrifugation, the supernatant was removed and the pellet was washed with 75% ethanol. […] RNA yield and purity were quantified by absorbance at 260 nm and 280 nm. […]
For RT-PCR, total cellular RNA was harvested as described in Examples 1 and 3 and amplified by RT-PCR using primers specific to BCRP mRNA (SEQ ID NOs: 13 and 14). The RT-PCR products were separated by electrophoresis on a 2% agarose gel and analyzed to determine whether shRNA/BCRP clone cells produced substantially less BCRP mRNA than C2BBe1 cells transduced with a non-interfering shRNA vector control.

[5] = test system: MRP2 mRNA; assay: RT-PCR of MRP2 mRNA expression in transduced C2BBe1 cells; format: cell-based, human; settings: cells passaged 20 times
Method: (§3) RT-PCR. Total RNA was extracted from cells according to the following protocol. Cells were harvested from culture by centrifugation, resuspended in 1 ml of TRIzol® reagent (Invitrogen, Carlsbad, Calif.), and incubated at room temperature for 5 minutes with gentle shaking. The suspension was transferred to a 1.5 ml centrifuge tube, to which 200 μl of Chloroform was added, followed by an additional 5 minute incubation period with shaking. After incubation, the suspension was centrifuged at 12,000×g for 12 minutes at 4° C. The supernatant was transferred to a fresh, sterile 1.5 ml centrifuge tube, and supplemented with 0.5 ml of 2-propanaol per 1 ml of TRIzol reagent, and incubated for 10 minutes at room temperature. The mixture was then centrifuged at 12,000×g for an additional 12 minutes at 4° C. After centrifugation, the supernatant was removed and the pellet was washed with 75% ethanol. The sample was re-centrifuged at 7500×g for 5 minutes at 4° C., followed by the removal of the supernatant. The pellet was allowed to air dry at room temperature. The pellet was resuspended in pre-warmed (55° C.) nuclease-free water, and incubated at 55° C. for 10 minutes. RNA yield and purity were quantified by absorbance at 260 nm and 280 nm.
(§4) RT-PCR mixtures were set up as 50 μl samples containing buffer, 1-2 μg of RNA, 10 μM of Forward primer, 10 μM of Reverse primer, Taq polymerase, and water. Primers to amplify human P-gylcoprotein were as follows: P-gp Forward 5′-[…]-3′ (SEQ ID NO: 9); and, P-gp Reverse 5′-[…]-3′ (SEQ ID NO: 10). Primers to amplify human MRP2 were as follows: MRP2 Forward 5′-[…]-3′ (SEQ ID NO: 11); and, MRP2 Reverse 5′-[…]-3′ (SEQ ID NO: 12). Primes to amplify human BCRP were as follows: BCRP Forward 5′-[…] 3′ (SEQ ID NO: 13); and, BCRP Reverse 5′-[…] 3′ (SEQ ID NO: 14). Human β-actin was amplified in parallel as a positive control using the following primers: β-actin Forward 5′-[…]-3′ (SEQ ID NO: 15); and, β-actin Reverse 5′-[…]-3′ (SEQ ID NO: 16).
(§5) The PCR cycles proceeded in a programmable thermocycler with the following parameters: cDNA synthesis, 1 cycle, 55° C. for 30 minutes; denaturation, 1 cycle, 94° C. for 2 minutes; PCR amplification, 40 cycles of 94° C. for 15 seconds, 62° C. for 30 seconds, 72° C. for 1 minute; and, final extension, 1 cycle, 72° C. for 5 minutes. Amplification was confirmed by electrophoresis in 2% agarose gels.
For this example, gene expression of MRP2 in C2BBe1 cells was determined by observing both the MRP2 mRNA content as well as the protein content of the cells following viral transduction. To examine mRNA content, total cellular RNA was harvested and amplified by RT-PCR using primers specific to the MRP2 gene (SEQ ID NO: 11 and 12). The RT-PCR products were then analyzed after separation by electrophoresis on a 2% agarose gel.
Vector control (VC) cells were prepared from cells transducted with lentiviruses encoding a non-interfering nucleic acid sequence (SEQ ID NO 27), as described in Example 7. Methods were described in Example 1. […]

[6] = target: T2, BCRP (Homo sapiens, UniProt Q9UNQ0); assay: Bidirectional transcellular transport of E3S (BCRP substrate) across C2BBe1-derived monolayers; settings: compared to control cells
T2 sequence (Q9UNQ0 1-655): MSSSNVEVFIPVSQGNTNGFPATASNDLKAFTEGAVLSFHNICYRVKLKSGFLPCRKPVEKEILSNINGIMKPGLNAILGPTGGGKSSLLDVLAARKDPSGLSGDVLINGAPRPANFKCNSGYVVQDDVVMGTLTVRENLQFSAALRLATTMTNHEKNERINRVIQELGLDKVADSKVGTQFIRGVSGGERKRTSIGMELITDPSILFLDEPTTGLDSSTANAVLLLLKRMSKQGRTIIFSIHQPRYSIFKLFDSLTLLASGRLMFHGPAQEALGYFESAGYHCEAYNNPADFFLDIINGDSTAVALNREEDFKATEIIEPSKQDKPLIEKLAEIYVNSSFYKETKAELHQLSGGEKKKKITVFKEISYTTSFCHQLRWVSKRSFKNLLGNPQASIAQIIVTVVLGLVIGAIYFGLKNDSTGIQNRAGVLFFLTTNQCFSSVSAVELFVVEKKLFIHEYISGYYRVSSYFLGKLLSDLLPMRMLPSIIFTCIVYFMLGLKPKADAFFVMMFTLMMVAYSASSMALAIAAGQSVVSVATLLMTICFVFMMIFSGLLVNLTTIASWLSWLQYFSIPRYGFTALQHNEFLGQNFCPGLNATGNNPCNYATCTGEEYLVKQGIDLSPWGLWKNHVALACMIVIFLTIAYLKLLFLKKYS
Method: as §1, §2
Each of the five shRNA/BCRP knockdown clone cells were seeded on transwells for three weeks for the transport assay.

[7] = test system: P-gp mRNA; assay: RT-PCR of P-gp mRNA expression in transduced C2BBe1 cells; format: cell-based, human; settings: for P-gp mRNA expression relative to control C2BBe1 cells: RT-PCR, shRNA/P-gp clone cells
Method: as §3, §4, §5
Gene expression of P-gp in knockdown cells (shRNA/P-gp clones #83, 84, 85, 86, and 87) was determined by observing P-gp mRNA content, protein content and protein functional activity. RT-PCR was used to determine the expression of the P-gp mRNA. Total cellular RNA was harvested and amplified using primers specific to P-gp mRNA. RT-PCR products were then separated by electrophoresis on a 2% agarose gel. It was determined that 4 of the 5 shRNA/P-gp clone cells contained substantially less P-gp mRNA than control C2BBe1 cells (FIG. 2, top panel). β-actin was amplified, in parallel, as a positive control, and its expression was not affected by the interfering shRNA (FIG. 2, bottom panel).

[8] = target: T1, P-gp; assay: Calcein-AM assay; settings: transduced C2BBe1 cells vs Un-KD
Method: Calcein-AM assay. To determine activity of the P-gp protein, calcein-AM assays were conducted.
To determine the P-gp activity, cells were plated in 96-well tissue culture plates and cultured for 48. After 48 hours, cell culture media was removed and the cells were washed with phosphate buffered saline solution (PBS). After washing, cells were incubated with 1 μM calcein-AM for 30 minutes. […] After incubation with calcein-AM, the cells were rinsed with fresh control buffer and fluorescence was measured using a Fluo-star fluorescence plate reader (BMG Lab Technologies, N.C.) with excitation and emission filters set at wavelengths of 485 nm and 538 nm, respectively.
Calcein-AM efflux is not mediated by BCRP. Therefore, any increase in calcein-AM uptake by the cells can be attributed to P-gp inhibition. The cells were plated in 96-well tissue culture plates and cultured for 48 hours. After 48 hours, cell culture media was removed and the cells were washed with phosphate buffered saline solution (PBS). After washing, cells were incubated with 1 μM calcein-AM for 30 minutes. […] After incubation with calcein-AM, the cells were rinsed with fresh control buffer and fluorescence was measured using a Fluo-star fluorescence plate reader (BMG Lab Technologies, N.C.) with excitation and emission filters set at wavelengths of 485 nm and 538 nm, respectively. The assay was carried out after each clone had been passaged 9 times.

T1 sequence (P08183 whole entry): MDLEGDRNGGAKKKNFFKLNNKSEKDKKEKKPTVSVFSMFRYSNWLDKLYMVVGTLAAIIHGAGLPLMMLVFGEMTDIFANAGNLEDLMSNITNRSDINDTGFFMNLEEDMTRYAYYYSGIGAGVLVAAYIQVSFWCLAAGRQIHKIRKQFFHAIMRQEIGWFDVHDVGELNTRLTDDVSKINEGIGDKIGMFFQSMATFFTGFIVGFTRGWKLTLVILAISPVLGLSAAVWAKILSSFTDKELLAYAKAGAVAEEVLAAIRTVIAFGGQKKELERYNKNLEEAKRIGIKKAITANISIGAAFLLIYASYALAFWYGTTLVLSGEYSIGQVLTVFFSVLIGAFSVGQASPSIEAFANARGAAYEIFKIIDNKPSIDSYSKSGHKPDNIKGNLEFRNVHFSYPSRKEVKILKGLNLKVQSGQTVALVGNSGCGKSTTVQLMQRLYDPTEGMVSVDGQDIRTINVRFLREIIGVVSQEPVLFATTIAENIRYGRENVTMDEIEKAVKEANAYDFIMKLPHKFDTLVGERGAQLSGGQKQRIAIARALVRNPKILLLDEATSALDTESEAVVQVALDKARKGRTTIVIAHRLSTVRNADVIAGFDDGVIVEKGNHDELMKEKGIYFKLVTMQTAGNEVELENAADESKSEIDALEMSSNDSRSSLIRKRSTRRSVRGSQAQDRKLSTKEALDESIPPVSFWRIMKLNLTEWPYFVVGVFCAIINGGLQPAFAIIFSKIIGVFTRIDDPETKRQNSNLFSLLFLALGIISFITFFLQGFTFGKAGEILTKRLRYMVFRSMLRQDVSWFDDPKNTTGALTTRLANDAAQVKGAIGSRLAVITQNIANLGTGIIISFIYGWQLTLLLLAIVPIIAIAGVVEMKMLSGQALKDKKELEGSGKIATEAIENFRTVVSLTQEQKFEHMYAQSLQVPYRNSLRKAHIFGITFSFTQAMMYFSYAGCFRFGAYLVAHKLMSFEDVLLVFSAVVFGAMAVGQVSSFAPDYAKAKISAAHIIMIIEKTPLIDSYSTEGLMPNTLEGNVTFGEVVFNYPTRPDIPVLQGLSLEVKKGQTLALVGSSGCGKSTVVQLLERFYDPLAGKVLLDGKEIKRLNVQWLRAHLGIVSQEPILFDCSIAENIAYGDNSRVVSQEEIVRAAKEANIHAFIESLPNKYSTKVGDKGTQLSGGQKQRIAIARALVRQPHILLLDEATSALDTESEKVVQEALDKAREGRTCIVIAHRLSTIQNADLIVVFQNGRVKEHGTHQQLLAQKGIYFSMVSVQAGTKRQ

Row | Compound | efflux ratio at 2 h [1] | efflux ratio at 2 h [2] | P-gp function by intracellular calcein fluorescence [8] | P-gp mRNA expression relative to control C2BBe1 cells [7] | other results
1 | Cc1cc(=O)n(-c2ccccc2)n1C [Antipyrine] | 0.92 | 0.84 | – | – | –
2 | CNCCCN1c2ccccc2CCc2ccccc21 [Desipramine] | 6.84 | 5.59 | – | – | –
3 | C[C@H]1O[C@@H](O[C@H]2[C@@H](O)C[C@H](O[C@H]3[C@@H](O)C[C@H](O[C@H]4CC[C@@]5(C)[C@H](CC[C@@H]6[C@@H]5C[C@@H](O)[C@]5(C)[C@@H](C7=CC(=O)OC7)CC[C@]65O)C4)O[C@@H]3C)O[C@@H]2C)C[C@H](O)[C@@H]1O [Digoxin] | – | – | – | – | Papp A→B at 2 h ([3]; Caco-2, pH 7.4, Efflux of digoxin A-B): 0.2 ×10⁻⁶ cm/s; Papp B→A at 2 h ([3]; Caco-2, pH 7.4, Efflux of digoxin B-A): 3.69 ×10⁻⁶ cm/s; Papp B→A at 2 h, 10 µM ([3]; Caco-2, pH 7.4, Papp B-A (Digoxin)): 8.24 ×10⁻⁶ cm/s
4 | COc1cc([C@@H]2c3cc4c(cc3[C@@H](O[C@@H]3O[C@@H]5CO[C@@H](C)O[C@H]5[C@H](O)[C@H]3O)[C@H]3COC(=O)[C@H]23)OCO4)cc(OC)c1O [Etoposide] | 11.5 | 13.7 | – | – | –
5 | shRNA/BCRP 801: 21-nucleotide sequence targeting human BCRP gene, SEQ ID NO: 25, lentivirally transduced into C2BBe1 cells; clone #801 (CCGGGCTGTGGCATTAAACAGAGAACTCGAGTTCTCTGTTTAATGCCACAGCTTTTTG; listed as Homo Sapiens) | – | – | – | – | BCRP mRNA knockdown over passages [4]: steadily increased; MRP2 mRNA levels in shRNA/BCRP clone cells [5]: reduced; inhibition for BCRP function in E3S transport [6]: 96.43%; P-gp mRNA levels in shRNA/BCRP clone cells ([7]; compared with #799 and control cells): higher
6 | shRNA/P-gp #84: shRNA to human P-gp, SEQ ID NO: 2, lentivirally transduced into C2BBe1 cells; clone #84 (CCGGGCAGCAATTAGAACTGTGATTCTCGAGAATCACAGTTCTAATTGCTGCTTTTTG; listed as Homo Sapiens) | – | – | significantly decreased | significantly reduced | –
7 | shRNA/P-gp #85: shRNA to human P-gp, SEQ ID NO: 3, lentivirally transduced into C2BBe1 cells; clone #85 (CCGGCGACAGAATAGTAACTTGTTTCTCGAGAAACAAGTTACTATTCTGTCGTTTTTG; listed as Homo Sapiens) | – | – | significantly decreased | significantly reduced | –
8 | shRNA/P-gp #86: shRNA to human P-gp, SEQ ID NO: 4, lentivirally transduced into C2BBe1 cells; clone #86 (CCGGGCTCATCGTTTGTCTACAGTTCTCGAGAACTGTAGACAAACGATGAGCTTTTTG; listed as Homo Sapiens) | – | – | significantly decreased | significantly reduced | –
9 | shRNA/P-gp #87: shRNA to human P-gp, SEQ ID NO: 5, lentivirally transduced into C2BBe1 cells; clone #87 (CCGGGCTGCTTTCCTGCTGATCTATCTCGAGATAGATCAGCAGGAAAGCAGCTTTTTG; listed as Homo Sapiens) | – | – | significantly decreased | significantly reduced | –
